These results are taken from patent US11440910B2, “Pesticidally active heterocyclic derivatives with sulfur containing substituents” (SYNGENTA PARTICIPATIONS AG, priority 2017, dated 2022).

Structures are written as SMILES. Bounds are passed on as bounds.

Holding throughout (type): in vivo
The test system of experiment [1] is Diabrotica balteata (Corn root worm). The experiment is described as follows: Example B4: Diabrotica balteata, maize sprouts sprayed. As to conditions: 96 h, application rate 200 ppm, L2 larvae, 4 days after infestation, read-out: effect in at least one of the two categories (mortality or growth inhibition). How it is done:
Example B4: Diabrotica Balteata (Corn Root Worm)
Maize sprouts placed onto an agar layer in 24-well microtiter plates were treated with aqueous test solutions prepared from 10′000 ppm DMSO stock solutions by spraying. After drying, the plates were infested with L2 larvae (6 to 10 per well). The samples were assessed for mortality and growth inhibition in comparison to untreated samples 4 days after infestation.

Experiment [2] deals with Bemisia tabaci (Cotton white fly). The experiment is described as follows: Example B7: Bemisia tabaci, cotton leaf discs sprayed. As to conditions: foliar, 144 h, application rate 200 ppm, adult white flies, 6 days after incubation. The protocol: Example B7: Bemisia Tabaci (Cotton White Fly)
Cotton leaf discs were placed on agar in 24-well microtiter plates and sprayed with aqueous test solutions prepared from 10′000 ppm DMSO stock solutions. After drying the leaf discs were infested with adult white flies. The samples were checked for mortality 6 days after incubation.

The subject of experiment [3] is Myzus persicae (Green peach aphid). The experiment is described as follows: Example B5: Myzus persicae, sunflower leaf discs sprayed. The conditions noted are these: foliar, 144 h, application rate 200 ppm, mixed ages, 6 days after infestation. The protocol: Example B5: Myzus Persicae (Green Peach Aphid)
Sunflower leaf discs were placed onto agar in a 24-well microtiter plate and sprayed with aqueous test solutions prepared from 10′000 ppm DMSO stock solutions. After drying, the leaf discs were infested with an aphid population of mixed ages. The samples were assessed for mortality 6 days after infestation.

Experiment [4] shares this test system. The experiment is described as follows: Example B6: Myzus persicae, roots of pea seedlings in test solution. The conditions noted are these: 144 h, test rate 24 ppm, mixed ages, 6 days after placing seedlings into test solutions. How it is done: Example B6: Myzus Persicae (Green Peach Aphid)
Roots of pea seedlings infested with an aphid population of mixed ages were placed directly into aqueous test solutions prepared from 10′000 DMSO stock solutions. The samples were assessed for mortality 6 days after placing seedlings into test solutions.

Experiment [5] relates to Euschistus heros (Neotropical brown stink bug). As to the kind of experiment: Example B8: Euschistus heros, soybean leaves sprayed. The conditions noted are these: 120 h, application rate 200 ppm, N2 nymphs, 5 days after infestation, read-out: effect in at least one of the two categories (mortality or growth inhibition). The protocol:
Example B8: Euschistus Heros (Neotropical Brown Stink Bug)
Soybean leaves on agar in 24-well microtiter plates were sprayed with aqueous test solutions prepared from 10′000 ppm DMSO stock solutions. After drying the leaves were infested with N2 nymphs. The samples were assessed for mortality and growth inhibition in comparison to untreated samples 5 days after infestation.

Experiment [6] relates to Plutella xylostella (Diamond back moth). As to the kind of experiment: Example B3: Plutella xylostella, artificial diet. The conditions noted are these: 120 h, application rate 200 ppm, L2 larvae, 5 days after infestation, read-out: effect in at least one of the two categories (mortality or growth inhibition). The protocol: Example B3: Plutella Xylostella (Diamond Back Moth)
24-well microtiter plates with artificial diet were treated with aqueous test solutions prepared from 10′000 ppm DMSO stock solutions by pipetting. After drying, the plates were infested with L2 larvae (10 to 15 per well). The samples were assessed for mortality and growth inhibition in comparison to untreated samples 5 days after infestation.

Another experiment has as its system Euschistus heros. The experiment is described as follows: Example B13: comparison against Euschistus heros, soybean plants sprayed. As to conditions: 120 h, Concentration 3 ppm, N2 nymphs on 2 week old soybean plants, 5 days after treatment. How it is done: Activity of compound P17 according to the present invention and of compound P15 from WO2016/026848 against Euschistus heros is summarized in Table B13.
2 week old soybean plants were sprayed with diluted aqueous test solutions. Afterwards plants were infested with 10 stink bug nymphs (N2). Soybean seeds were added as additional food source to the test system. 5 days after treatment the samples were assessed for mortality.

For the compound `CCS(=O)(=O)c1cc(C(C)(C)C#N)ccc1-c1nc2cc(C(F)(F)F)ncc2n1C` [Compound P17, 2-[3-ethylsulfonyl-4-[3-methyl-6-(trifluoromethyl)imidazo[4,5-c]pyridin-2-yl]phenyl]-2-methyl-propanenitrile], the percent effect (mortality or growth inhibition) at 200 ppm in experiment [1], in experiment [5] and in experiment [6] was not below 80% throughout. Moreover, the mortality at 200 ppm in experiment [2] and in experiment [3] was not below 80% throughout. In experiment [4], this compound showed a mortality at 24 ppm not below 80%. This compound came in with a mortality at 3 ppm in the experiment on Euschistus heros of 95%.

For orientation: mortality means the percentage killed.
